Reference: patent publication US20240270809A1, “ORAL GLP RECEPTOR AGONISTS” (priority 2020, published 2024)
Where two headings read alike, the source gives them in different places. Positions of bridges follow the written chain, without caps; N, C: chain ends. Non-standard residues stand in square brackets, D forms with d. Residues, ends and D or L forms follow the SMILES beside them. *: point of attachment. Malonyl(2,2-Me2,histaminyl) = CC(C)(C(=O)NCCc1cnc[nH]1)C(=O)*; αMePhe(2-F) = C[C@](N)(Cc1ccccc1F)C(=O)O; αMeL = CC(C)C[C@](C)(N)C(=O)O; Nle = CCCC[C@H](N)C(=O)O; Aib = CC(C)(N)C(=O)O

Assays:
Assay type in all cases: cell-based
human GLP1 receptor = target: T1, human GLP1 receptor (Homo sapiens, UniProt P43220); assay: cAMP accumulation assay, functional agonism of human GLP1 receptor; conditions: HEK cells infected with human GLP1 receptor BacMam virus, HTRF cAMP; for Emax: HEK293, read-out: Human GLP-1R agonist cAMP Emax; for EC50: read-out: Human GLP-1R agonist cAMP pEC50 (converted)
T1 construct: expressed in transfected cells; host or cells: HEK cells, BacMam virus transduction
Method in brief: (§1)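 HTRF cAMP read-out: HEK cells expressing GLP1 or GLP2 receptor via 24 h BacMam infection, frozen before use; agonist exposure 45 min, 37° C, HBSS + 0.5 mM IBMX; stopped with detection reagents in lysis buffer.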

human GLP2 receptor = target: T2, human GLP2 receptor (Homo sapiens, UniProt O95838); assay: cAMP accumulation assay, functional agonism of human GLP2 receptor; conditions: HEK cells infected with human GLP2 receptor BacMam virus, HTRF cAMP; for Emax: HEK293, read-out: Human GLP-2R agonist cAMP Emax; for EC50: read-out: Human GLP-2R agonist cAMP pEC50 (converted)
T2 construct: expressed in transfected cells; host or cells: HEK cells, BacMam virus transduction
T2 sequence (O95838 1-553): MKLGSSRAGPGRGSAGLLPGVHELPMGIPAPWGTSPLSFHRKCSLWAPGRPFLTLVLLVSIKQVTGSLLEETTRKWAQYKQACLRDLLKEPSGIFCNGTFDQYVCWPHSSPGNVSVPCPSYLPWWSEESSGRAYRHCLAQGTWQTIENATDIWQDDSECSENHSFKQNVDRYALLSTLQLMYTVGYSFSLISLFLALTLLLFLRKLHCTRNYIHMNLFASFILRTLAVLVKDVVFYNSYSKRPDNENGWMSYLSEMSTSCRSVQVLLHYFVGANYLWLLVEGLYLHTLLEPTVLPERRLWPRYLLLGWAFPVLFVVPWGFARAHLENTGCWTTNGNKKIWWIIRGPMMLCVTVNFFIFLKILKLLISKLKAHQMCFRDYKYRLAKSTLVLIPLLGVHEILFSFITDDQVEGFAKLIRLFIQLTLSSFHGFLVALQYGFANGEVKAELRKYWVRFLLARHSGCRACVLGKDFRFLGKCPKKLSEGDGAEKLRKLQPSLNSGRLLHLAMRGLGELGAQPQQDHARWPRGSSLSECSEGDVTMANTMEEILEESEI
Method in brief: as §1

mouse GLP2 receptor = target: T3, mouse GLP2 receptor (Mus musculus, UniProt Q5IXF8); assay: cAMP accumulation assay, functional agonism of mouse GLP2 receptor
T3 construct: expressed in transfected cells; host or cells: HEK cells, transient transfection with GeneJuice
T3 sequence (Q5IXF8 1-512): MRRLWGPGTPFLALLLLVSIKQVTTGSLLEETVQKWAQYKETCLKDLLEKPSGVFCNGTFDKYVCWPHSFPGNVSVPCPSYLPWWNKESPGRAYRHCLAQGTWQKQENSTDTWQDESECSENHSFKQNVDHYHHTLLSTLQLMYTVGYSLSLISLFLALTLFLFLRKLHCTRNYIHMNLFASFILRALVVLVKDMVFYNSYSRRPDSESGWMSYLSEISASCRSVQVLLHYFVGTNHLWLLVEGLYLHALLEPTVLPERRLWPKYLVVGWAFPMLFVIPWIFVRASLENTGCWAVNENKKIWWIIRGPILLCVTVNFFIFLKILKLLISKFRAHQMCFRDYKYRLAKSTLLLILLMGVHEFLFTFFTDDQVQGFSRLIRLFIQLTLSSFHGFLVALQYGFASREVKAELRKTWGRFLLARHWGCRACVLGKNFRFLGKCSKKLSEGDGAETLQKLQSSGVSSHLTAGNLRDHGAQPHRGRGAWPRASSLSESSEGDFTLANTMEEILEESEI
Protocol: CAMP production upon agonist stimulation of mouse GLP2 or GLP1 receptors was assessed utilizing HiRange cAMP kit (Cisbio). In brief, HEK cells were transiently transfected for 24 hours with cDNA using GeneJuice Transfection reagent (EMD Millipore) and frozen at −80° C. for later use in the assay. On the day, various concentrations of compounds were dispensed using ECHO-555 (LabCyte) to a total volume of 100 nl into a low volume 384-well Proxi plate (Perkin Elmer) followed by addition of 10 μl of cell suspension delivering 8000 cells per well. Cells were prepared in the assay buffer (HBSS (Lonza) supplemented with 0.5 mM IBMX (Tocris)). After 45 min incubation at 37° C., the reaction was stopped by addition of the HTRF detection reagents in the lysis buffer provided in the kit. Following 1-hour incubation at RT, plates were read on Pherastar FS (BMG Labtech, Inc.) using standard HTRF settings. Dotmatics Studies software was used for calculation of pEC50 values by fitting data to a four-parameter concentration response curve.

[1] = HEK293, HEK cells transiently transfected with mouse GLP2 receptor, HTRF cAMP, read-out: Mouse GLP-2R agonist cAMP Emax
[2] = HEK cells transiently transfected with mouse GLP2 receptor, HTRF cAMP, read-out: Mouse GLP-2R agonist cAMP pEC50 (converted)

T1 sequence (P43220 24-463): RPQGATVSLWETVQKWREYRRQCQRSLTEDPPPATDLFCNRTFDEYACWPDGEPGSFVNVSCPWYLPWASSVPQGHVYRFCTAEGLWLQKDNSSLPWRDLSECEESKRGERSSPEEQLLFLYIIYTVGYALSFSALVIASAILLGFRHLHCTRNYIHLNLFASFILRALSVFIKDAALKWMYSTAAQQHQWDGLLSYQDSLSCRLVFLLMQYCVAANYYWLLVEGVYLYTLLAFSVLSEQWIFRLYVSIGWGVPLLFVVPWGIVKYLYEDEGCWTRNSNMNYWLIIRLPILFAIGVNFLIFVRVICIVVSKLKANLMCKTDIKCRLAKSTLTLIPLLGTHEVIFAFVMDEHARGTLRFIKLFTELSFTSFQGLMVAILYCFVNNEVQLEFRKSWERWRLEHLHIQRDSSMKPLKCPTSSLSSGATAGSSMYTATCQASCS

| SMILES | Emax (human GLP1 receptor) [%] | EC50 (human GLP1 receptor) [nM] | Emax (human GLP2 receptor) [%] | EC50 (human GLP2 receptor) [nM] | Emax (mouse GLP2 receptor; [1]) [%] | EC50 (mouse GLP2 receptor; [2]) [nM] | EC50 (mouse GLP2 receptor) [nM] | Emax (mouse GLP2 receptor; HEK293, read-out: Mouse GLP-2R agonist cAMP Emax) [%] |
| --- | --- | --- | --- | --- | --- | --- | --- | --- |
| CCCC[C@H](NC(=O)[C@H](CCC(=O)O)NC(=O)[C@@H]1CC(=O)NCCCC[C@H](NC(=O)[C@H](CC(=O)O)NC(=O)C(C)(C)C(=O)NCCc2c[nH]cn2)C(=O)N[C@@H](CO)C(=O)N[C@@](C)(Cc2ccccc2F)C(=O)N[C@@H](CO)C(=O)N1)C(=O)N[C@H](Cc1ccccc1)C(=O)N[C@H](C(=O)N[C@@](C)(CC(C)C)C(=O)N[C@@H](CC(C)C)C(=O)N[C@@H](CC(=O)O)C(=O)N[C@H]1CCC(=O)NCCCC[C@@H](C(=O)N[C@@H](CC(=O)O)C(=O)N[C@@H](Cc2ccccc2)C(=O)N[C@H](C(=O)N[C@H]2CCC(=O)NCCCC[C@@H](C(=O)N[C@H]3CCC(=O)NCCCC[C@@H](C(N)=O)NC(=O)[C@H]([C@@H](C)O)NC(=O)[C@H]([C@@H](C)CC)NC(=O)[C@H](CCCCN)NC3=O)NC(=O)[C@H]([C@@H](C)CC)NC(=O)[C@H](CC(C)C)NC(=O)[C@H](Cc3c[nH]c4ccccc34)NC2=O)[C@@H](C)CC)NC(=O)[C@H](C)NC(=O)[C@H](C)NC(=O)[C@H](CCCCN)NC1=O)[C@@H](C)O [Example 65] ({Malonyl(2,2-Me2,histaminyl)}-DKS[αMePhe(2-F)]SDE[Nle][dF]T[αMeL]LDEKAAKDFIEWLIKEKITK-NH2; lactam 2-6, 14-18, 22-26, 27-31 (inferred); C-terminus assumed) | 97.9 | 0.0398 | 102 | 0.0398 | 86.3 | 6.31 | – | – |
| CCCC[C@@H]1NC(=O)[C@H](CCC(=O)O)NC(=O)[C@H](CC(=O)O)NC(=O)[C@@H](NC(=O)[C@H](Cc2ccccc2)NC(=O)[C@H](CO)NC(=O)CNC(=O)[C@H](CC(=O)O)NC(=O)C(C)(C)NC(=O)[C@@H](N)Cc2c[nH]cn2)CCC(=O)NCCCC[C@@H](C(=O)N[C@H]2CCC(=O)NCCCC[C@@H](C(=O)N[C@H]3CCC(=O)NCCCC[C@@H](C(=O)N[C@@H](CC(=O)O)C(=O)N[C@@H](Cc4ccccc4)C(=O)N[C@H](C(=O)N[C@H]4CCC(=O)NCCCC[C@@H](C(=O)N[C@H]5CCCCNC(=O)CC[C@@H](C(N)=O)NC(=O)[C@H]([C@@H](C)O)NC(=O)[C@H]([C@@H](C)CC)NC(=O)[C@H](CCCCN)NC5=O)NC(=O)[C@H]([C@@H](C)CC)NC(=O)[C@H](CC(C)C)NC(=O)[C@H](Cc5c[nH]c6ccccc56)NC4=O)[C@@H](C)CC)NC(=O)[C@H](C)NC(=O)[C@H](C)NC3=O)NC(=O)[C@H](CC(=O)O)NC(=O)[C@H](CC(C)C)NC(=O)[C@H]([C@@H](C)CC)NC2=O)NC1=O [Example 76] (H-H[Aib]DGSFEDE[Nle]KEILDKEAAKDFIEWLIKKKITE-NH2; lactam 7-11, 12-16, 17-20, 24-28, 29-33 (inferred)) | 94.9 | 1 | 102 | 0.0126 | – | – | 1.26 | 102 |
| CCCC[C@@H]1NC(=O)[C@H](CCC(=O)O)NC(=O)[C@H](CC(=O)O)NC(=O)[C@@H](NC(=O)[C@H](Cc2ccccc2)NC(=O)[C@H](CO)NC(=O)CNC(=O)[C@H](CC(=O)O)NC(=O)C(C)(C)NC(=O)[C@@H](N)Cc2c[nH]cn2)CCC(=O)NCCCC[C@@H](C(=O)N[C@H]2CCC(=O)NCCCC[C@@H](C(=O)N[C@H]3CCCCNC(=O)C[C@@H](C(=O)N[C@@H](Cc4ccccc4)C(=O)N[C@H](C(=O)N[C@H]4CCC(=O)NCCCC[C@@H](C(=O)N[C@H]5CCCCNC(=O)CC[C@@H](C(N)=O)NC(=O)[C@H]([C@@H](C)O)NC(=O)[C@H]([C@@H](C)CC)NC(=O)[C@H](CCCCN)NC5=O)NC(=O)[C@H]([C@@H](C)CC)NC(=O)[C@H](CC(C)C)NC(=O)[C@H](Cc5c[nH]c6ccccc56)NC4=O)[C@@H](C)CC)NC(=O)[C@H](CCCCN)NC(=O)[C@H](C)NC(=O)[C@H](C)NC3=O)NC(=O)[C@H](CC(=O)O)NC(=O)[C@H](CC(C)C)NC(=O)[C@H]([C@@H](C)CC)NC2=O)NC1=O [Example 77] (H-H[Aib]DGSFEDE[Nle]KEILDKKAAKDFIEWLIKKKITE-NH2; lactam 7-11, 12-16, 17-21, 24-28, 29-33; N-terminus and C-terminus assumed) | 97.1 | 0.501 | 102 | 0.0631 | 102 | 3.16 | – | – |

Now from value to molecule, other results behind:

| Emax (human GLP1 receptor) [%] | EC50 (human GLP1 receptor) [nM] | Emax (human GLP2 receptor) [%] | EC50 (human GLP2 receptor) [nM] | Emax (mouse GLP2 receptor; [1]) [%] | EC50 (mouse GLP2 receptor; [2]) [nM] | SMILES | EC50 (mouse GLP2 receptor) [nM] | Emax (mouse GLP2 receptor; HEK293, read-out: Mouse GLP-2R agonist cAMP Emax) [%] |
| --- | --- | --- | --- | --- | --- | --- | --- | --- |
| 95 | 0.631 | 102 | 0.0398 | 81.9 | 6.31 | CCCC[C@H](NC(=O)[C@H](CCC(=O)O)NC(=O)[C@@H]1CCCCNC(=O)CC[C@H](NC(=O)[C@H](CC(=O)O)NC(=O)C(C)(C)NC(=O)[C@@H](N)Cc2c[nH]cn2)C(=O)N[C@@H](CO)C(=O)N[C@@H](Cc2ccccc2)C(=O)N[C@@H](CO)C(=O)N1)C(=O)N[C@H](Cc1ccccc1)C(=O)N[C@H]1CCC(=O)NCCCC[C@@H](C(=O)N[C@H]2CCCCNC(=O)C[C@@H](C(=O)N[C@@H](Cc3ccccc3)C(=O)N[C@H](C(=O)N[C@H]3CCC(=O)NCCCC[C@@H](C(=O)N[C@H]4CCCCNC(=O)CC[C@@H](C(N)=O)NC(=O)[C@H]([C@@H](C)O)NC(=O)[C@H]([C@@H](C)CC)NC(=O)[C@H](CCCCN)NC4=O)NC(=O)[C@H]([C@@H](C)CC)NC(=O)[C@H](CC(C)C)NC(=O)[C@H](Cc4c[nH]c5ccccc45)NC3=O)[C@@H](C)CC)NC(=O)[C@H](CCCCN)NC(=O)[C@H](C)NC(=O)[C@H](C)NC2=O)NC(=O)[C@H](CC(=O)O)NC(=O)[C@H](CC(C)C)NC(=O)[C@H]([C@@H](C)CC)NC1=O [Example 75] (H-H[Aib]DESFSKE[Nle][dF]EILDKKAAKDFIEWLIKKKITE-NH2; lactam 4-8, 12-16, 17-21, 24-28, 29-33 (inferred); C-terminus assumed) | – | – |
| 95.5 | 0.251 | 103 | 0.0251 | 83.1 | 2 | CCCC[C@H](NC(=O)[C@H](CCC(=O)O)NC(=O)[C@@H]1CCCCNC(=O)CC[C@H](NC(=O)[C@H](Cc2nn[nH]n2)NC(=O)C(C)(C)C(=O)NCCc2c[nH]cn2)C(=O)N[C@@H](CO)C(=O)N[C@@H](Cc2ccccc2)C(=O)N[C@@H](CO)C(=O)N1)C(=O)N[C@H](Cc1ccccc1)C(=O)N[C@H]1CCC(=O)NCCCC[C@@H](C(=O)N[C@H]2CCC(=O)NCCCC[C@@H](C(=O)N[C@@H](CC(=O)O)C(=O)N[C@@H](Cc3ccccc3)C(=O)N[C@H](C(=O)N[C@H]3CCC(=O)NCCCC[C@@H](C(=O)N[C@H]4CCCCNC(=O)CC[C@@H](C(N)=O)NC(=O)[C@H]([C@@H](C)O)NC(=O)[C@H]([C@@H](C)CC)NC(=O)[C@H](CCCCN)NC4=O)NC(=O)[C@H]([C@@H](C)CC)NC(=O)[C@H](CC(C)C)NC(=O)[C@H](Cc4c[nH]c5ccccc45)NC3=O)[C@@H](C)CC)NC(=O)[C@H](C)NC(=O)[C@H](C)NC2=O)NC(=O)[C@H](CC(=O)O)NC(=O)[C@H](CC(C)C)NC(=O)[C@H]([C@@H](C)CC)NC1=O [Example 78] | – | – |
